Test results as given in ChEMBL document CHEMBL1156824, “Physicochemical space for optimum oral bioavailability: contribution of human intestinal absorption and first-pass elimination” (J Med Chem, 2010).

Columns and labels:
Homo sapiens [1] = species on record: Homo sapiens; experiment: Hepatic clearance in human; conditions: in vivo
Homo sapiens [2] = experiment: Oral bioavailability in human; conditions: in vivo
clinical = conditions: human, in vivo

Compound | CL (Homo sapiens [1]) [mL/min/kg] | F_fraction (Homo sapiens [2]) | CL renal (clinical) [mL/min/kg]
C[C@@H]1CN(c2c(F)c(N)c3c(=O)c(C(=O)O)cn(C4CC4)c3c2F)C[C@H](C)N1 [SPARFLOXACIN] | 2.3 | 0.92 | 
CNS(=O)(=O)Cc1ccc2[nH]cc(CCN(C)C)c2c1 | 15.3 | 0.14 | 
C[C@H](CS)C(=O)N1CCC[C@H]1C(=O)O [CAPTOPRIL] |  | 0.62 | 
O=C(NCCNCC(O)COc1ccc(O)cc1)N1CCOCC1 (stereo not drawn) [XAMOTEROL] | 1.1 | 0.05 | 
Nc1nc2c(ncn2CCC(CO)CO)c(=O)[nH]1 [PENCICLOVIR] | 1.7 | 0.05 | 
Cc1ccc(-c2nc3ccc(C)cn3c2CC(=O)N(C)C)cc1 [ZOLPIDEM] | 4.3 | 0.72 | 0.043
Cc1c(OCC(F)(F)F)ccnc1C[S+]([O-])c1nc2ccccc2[nH]1 (stereo not drawn) [LANSOPRAZOLE] | 4.4 | 0.85 | 0.044
COc1ccc(C(CN(C)C)C2(O)CCCCC2)cc1 (stereo not drawn) [VENLAFAXINE] | 13.4 | 0.42 | 0.6
CC(=O)N[C@H]1[C@H]([C@H](O)[C@H](O)CO)OC(C(=O)O)=C[C@@H]1N=C(N)N [ZANAMIVIR] | 0.2 | 0.03 | 
CC(C)Cc1ccc(C(C)C(=O)O)cc1 (stereo not drawn) [IBUPROFEN] |  | 0.95 | 
CCCCc1nc(Cl)c(CO)n1Cc1ccc(-c2ccccc2-c2nn[nH]n2)cc1 [LOSARTAN] | 7.3 | 0.36 | 
CCCc1nc2c(C)cc(-c3nc4ccccc4n3C)cc2n1Cc1ccc(-c2ccccc2C(=O)O)cc1 | 8.3 | 0.43 | 0.1
C=CC1=C(C(=O)O)N2C(=O)[C@@H](NC(=O)/C(=N\OCC(=O)O)c3csc(N)n3)[C@H]2SC1 [CEFIXIME] | 0.6 | 0.47 | 0.4
NCC1(CC(=O)O)CCCCC1 [GABAPENTIN] |  | 0.6 | 
COc1ccc(C(=O)Nc2ccccc2CCC2CCCCN2C)cc1 (stereo not drawn) [ENCAINIDE] | 12.2 | 0.3 | 0.8
CCOc1ccccc1OC(c1ccccc1)C1CNCCO1 (stereo not drawn) [REBOXETINE] | 0.8 | 0.95 | 0.041
Nc1c(CC(=O)O)cccc1C(=O)c1ccc(Br)cc1 [BROMFENAC] | 1.3 | 0.67 | 0.0022
N[C@@H](C(=O)N[C@@H]1C(=O)N2C(C(=O)O)=C(CSc3c[nH]nn3)CS[C@H]12)c1ccc(O)cc1 [CEFATRIZINE] | 0.7 | 0.75 | 
C[C@H]1COc2c(N3CCN(C)CC3)c(F)cc3c(=O)c(C(=O)O)cn1c23.C[C@H]1COc2c(N3CCN(C)CC3)c(F)cc3c(=O)c(C(=O)O)cn1c23.O [LEVOFLOXACIN] | 0.5 | 0.99 | 

Compound | CL (Homo sapiens [1]) [mL/min/kg] | F_fraction (Homo sapiens [2]) | CL renal (clinical) [mL/min/kg]
CCOc1ccccc1OCCN[C@H](C)Cc1ccc(OC)c(S(N)(=O)=O)c1 [TAMSULOSIN] | 0.5 | 1 | 0.1
COc1ccc2[nH]c([S+]([O-])Cc3ncc(C)c(OC)c3C)nc2c1 (stereo not drawn) [OMEPRAZOLE] | 8.3 | 0.53 | 0.1
CCc1nn(CCCN2CCN(c3cccc(Cl)c3)CC2)c(=O)n1CCOc1ccccc1 [NEFAZODONE] | 7.1 | 0.19 | 0.4
Nc1nc(=O)[nH]cc1F [FLUCYTOSINE] | 0.02 | 0.84 | 
COC(=O)C1=C(C)NC(C)=C(C(=O)OC)C1c1ccccc1[N+](=O)[O-] [NIFEDIPINE] |  | 0.5 | 
O=C1C(CC[S+]([O-])c2ccccc2)C(=O)N(c2ccccc2)N1c1ccccc1 (stereo not drawn) [SULFINPYRAZONE] |  | 0.93 | 
CC(C)c1nc(N(C)S(C)(=O)=O)nc(-c2ccc(F)cc2)c1/C=C/[C@@H](O)C[C@@H](O)CC(=O)O [ROSUVASTATIN] | 7.7 | 0.2 | 
NS(=O)(=O)c1cc2c(cc1C(F)(F)F)NCNS2(=O)=O [HYDROFLUMETHIAZIDE] | 0.7 |  | 9
O=C1CN=C(c2ccccn2)c2cc(Br)ccc2N1 [BROMAZEPAM] | 0.3 |  | 0.3
CN1C(=O)CC[C@H]1c1cccnc1 [COTININE] | 0.8 |  | 0.1
COc1cccc2c1C(=O)c1c(O)c3c(c(O)c1C2=O)C[C@@](O)(C(=O)CO)C[C@@H]3O[C@H]1C[C@H](N)[C@H](O)[C@H](C)O1 [DOXORUBICIN] | 13.2 | 0.05 | 
CN1CCN2c3ncccc3Cc3ccccc3C2C1 (stereo not drawn) [MIRTAZAPINE] | 7.7 |  | 0.3
CCCC(=O)Nc1ccc(OCC(O)CNC(C)C)c(C(C)=O)c1 (stereo not drawn) [ACEBUTOLOL] |  | 0.5 | 
CCOC(=O)c1ncn2c1CN(C)C(=O)c1cc(F)ccc1-2 [FLUMAZENIL] | 16 |  | 0.032
CC(=O)CC(c1ccccc1)c1c(O)c2ccccc2oc1=O (stereo not drawn) [WARFARIN] | 0.1 |  | 0.0011
O=C(NCCN1CCOCC1)c1ccc(Cl)cc1 [MOCLOBEMIDE] | 10 |  | 0.1
NS(=O)(=O)c1cc(C2(O)NC(=O)c3ccccc32)ccc1Cl (stereo not drawn) [CHLORTHALIDONE] | 0.5 |  | 1
c1ccc(C2(N3CCCCC3)CCCCC2)cc1 [PHENCYCLIDINE] | 4.3 |  | 0.8
CCOC(=O)Nc1ccc(NCc2ccc(F)cc2)nc1N [FLUPIRTINE] | 1.3 |  | 0.3

Compound | CL (Homo sapiens [1]) [mL/min/kg] | F_fraction (Homo sapiens [2]) | CL renal (clinical) [mL/min/kg]
O=C1CN=C(c2ccccc2)c2cc([N+](=O)[O-])ccc2N1 [NITRAZEPAM] | 0.9 |  | 0.0086
CNCC[C@@H](Oc1ccccc1C)c1ccccc1 [ATOMOXETINE] | 9 |  | 0.3
CCOC(=O)C1=C(C)NC(C)=C(C(=O)OC)C1c1cccc(Cl)c1Cl (stereo not drawn) [FELODIPINE] |  | 0.16 | 
O=C(c1ccccc1)c1ccc2n1CCC2C(=O)O (stereo not drawn) [KETOROLAC] | 0.2 | 1 | 
Cc1ccsc1C(=CCCN1CCC[C@@H](C(=O)O)C1)c1sccc1C [TIAGABINE] | 1.6 |  | 0.032
C[C@@H]1C[C@H]2[C@@H]3CCC4=CC(=O)C=C[C@]4(C)[C@@]3(F)[C@@H](O)C[C@]2(C)[C@@]1(O)C(=O)CO [DEXAMETHASONE] | 3.2 |  | 0.1
CS(=O)(=O)OCCCCOS(C)(=O)=O [BUSULFAN] | 2.4 |  | 0.024
Cn1c(=O)c2c(ncn2C)n(C)c1=O [CAFFEINE] | 1.4 |  | 0.017
C[C@H]1O[C@H](O[C@H]2[C@H](O)[C@@H](O)[C@@H](O[C@H]3[C@H](O)[C@@H](O)C(O)O[C@@H]3CO)O[C@@H]2CO)[C@H](O)[C@@H](O)[C@@H]1N[C@H]1C=C(CO)[C@@H](O)[C@H](O)[C@H]1O (stereo partly drawn) [ACARBOSE] | 0.1 |  | 2.1
Cc1nccn1CC1CCc2c(c3ccccc3n2C)C1=O (stereo not drawn) [ONDANSETRON] | 5.5 |  | 0.3
COCCc1ccc(OCC(O)CNC(C)C)cc1 (stereo not drawn) [METOPROLOL] | 12.4 |  | 0.7
CN(C)C(=O)Oc1cccc([N+](C)(C)C)c1.[Br-] [NEOSTIGMINE BROMIDE] | 3.8 |  | 5.4
Cc1nc2n(c(=O)c1CCN1CCC(c3noc4cc(F)ccc34)CC1)CCCC2 [RISPERIDONE] |  | 0.66 | 0.2
CCCN(CCC)S(=O)(=O)c1ccc(C(=O)O)cc1 [PROBENECID] | 0.2 | 1 | 
CCCNC(=O)NS(=O)(=O)c1ccc(Cl)cc1 [CHLORPROPAMIDE] | 0.036 |  | 0.009
CN(C)CCC(c1ccc(Cl)cc1)c1ccccn1 (stereo not drawn) [CHLORPHENIRAMINE] | 2.1 |  | 0.4
CC(C)NCC(O)c1ccc(NS(C)(=O)=O)cc1 (stereo not drawn) [SOTALOL] | 0.3 | 0.95 | 
CN(C)Cc1nnc2n1-c1ccc(Cl)cc1C(c1ccccc1)=NC2 [ADINAZOLAM] | 3.6 | 0.39 | 
CC1CCCC(C)N1CCCC(O)(c1ccccc1)c1ccccn1 (stereo not drawn) [PIRMENOL] | 1.1 |  | 0.7
